pIC50: −log10 of the molar value. “Also recorded” adds a separate entry of the source.
What was measured:
H838 cells [1] = assay: Real time impedance-based proliferation analysis, H838; type: cell-based
Protocol: (§1) 1.3. Evaluation of the Effect of ACPA against Cancer Cell Proliferation by Real Time Impedance-Based Proliferation Analysis
(§2) ACPA has been applied between this dose range (10^−9, 10^−10, 10^−11 and 10^−12 M) during the real time impedance-based proliferation analysis. After the cells are seeded when the cell indices reach 1.0, ACPA dose range has been applied. The graph has been normalized from the point where the cell indices reached 1.0 and ACPA application has been carried out at different doses. […] After ACPA has been added at the determined dose range, it has led to reduction in the proliferation of H1299 cells as of the 66th hour.

H1299 cells [2] = assay: Real time impedance-based proliferation analysis, H1299; type: cell-based
Protocol: as §1, §2

A549 cells [3] = assay: WST-1 proliferation analysis, A549; type: cell-based
From the text: (§3) 1.2. Evaluation of the Dose- and Time-Dependent Effect of ACPA to Cancer Cell Proliferation by WST-1 Technique

H358 cells [4] = assay: Real time impedance-based proliferation analysis, H358; type: cell-based
[5] = system: A549, H1299, H358 and H838 cells; assay: Efficient dose range over the 4 non-small cell lung cancer lines (WST-1 and real time impedance-based analysis); settings: 4 cell lines A549, H1299, H358 and H838
Protocol: as §2
Within the scope of the research, the efficient dose and time of the CB1 receptor agonist ACPA has been calculated using the WST-1 and real time impedance-based proliferation analysis method on the examined 4 different non-small cell lung cancer lines.

A549 cells [6] = assay: Real time impedance-based proliferation analysis, A549; type: cell-based
Protocol: as §1, §2

H838 cells [7] = assay: WST-1 proliferation analysis, H838; type: cell-based; settings: p<0.05
From the text: as §3

H358 cells [8] = assay: WST-1 proliferation analysis, H358; type: cell-based; settings: p<0.05
From the text: as §3

H1299 cells [9] = assay: WST-1 proliferation analysis, H1299; type: cell-based; settings: all doses, days 1, 2 and 3, p<0.05
From the text: as §3

[10] = dose ranges applied, depending on time
[11] = normalized cell index vs log ACPA concentration, read-out: antiproliferative IC50

SMILES: CCCCC/C=C\C/C=C\C/C=C\C/C=C\CCCC(=O)NC1CC1 [ACPA, Arachidonoyl cyclopropylamide]
- proliferation in comparison to the control group (impedance) (H838 cells [1]; 1.39×10^−12 M ACPA, 190th hour, p<0.05): statistically significant reduction
- proliferation vs control group (normalized cell index) (H838 cells [1]; ACPA doses, following the 30th hour, p<0.05): significantly reduced the proliferation of cells
- efficient dose, effect seen on the 48th hour (H838 cells [1]; WST-1 and impedance analysis): 34.7 pM
- proliferation (normalized cell index) (H838 cells [1]; [10]): reduced the proliferation
- pIC50 (H838 cells [1]; [11]): 10.46
- proliferation in comparison to the control group (impedance) (H1299 cells [2]; 1.39×10^−12 M ACPA (free or released from nanoparticles), 48 and 72nd hours, p<0.05): significant reduction has been observed
- proliferation (normalized cell index) (H1299 cells [2]; 10^−11 M, as of the 66th hour, p<0.05): significantly reduced the proliferation of cells
- proliferation (normalized cell index) (H1299 cells [2]; 10^−12, 10^−10 and 10^−9 M, after the 86th hour, p<0.05): significantly reduced the proliferation of cells
- efficient dose, effect seen on the 48th hour (H1299 cells [2]; WST-1 and impedance analysis): 1.39 pM
- proliferation (normalized cell index) (H1299 cells [2]; [10]): reduced the proliferation
- pIC50 (H1299 cells [2]; [11]): 11.86
- proliferation vs control group (WST-1 absorbance) (A549 cells [3]; day 1, doses 10^−12, 10^−11, 10^−10 and 10^−9 M, p<0.05): statistically significantly reduced
- antiproliferative effect (WST-1) (A549 cells [3]; second and 3rd days, doses applied): antiproliferative effect was not observed
- efficient dose, effect seen on the 48th hour (H358 cells [4]; WST-1 and impedance analysis): 1.39 pM
- proliferation (normalized cell index) (H358 cells [4]; [10]): reduced the proliferation
- pIC50 (H358 cells [4]; [11]): 11.86
- dose range found to be efficient in WST-1 analysis [5]: 10^−12-10^−9 M
- proliferation (normalized cell index) (A549 cells [6]; ACPA 10^−9 to 10^−12 M): not exhibited a significant change
- efficient dose, effect seen on the 48th hour (A549 cells [6]; WST-1 and impedance analysis): 1.39 pM
- pIC50 (A549 cells [6]; [11]): 11.86
- proliferation vs control group (WST-1) (H838 cells [7]; 2nd day, 10^−9 M): antiproliferative effect; also recorded: reduced the proliferation of H838 cells statistically significantly
- proliferation vs control group (WST-1) (H838 cells [7]; 3rd day, 10^−9 and 10^−12 M): antiproliferative effect; also recorded: reduced the proliferation of H838 cells statistically significantly
- antiproliferative effect (WST-1) (H358 cells [8]; 2nd day, all doses): Antiproliferative effect was seen
- antiproliferative effect (WST-1) (H358 cells [8]; day 1, doses 10^−10, 10^−8, 10^−7 and 10^−6 M): antiproliferative effect of ACPA was observed
- antiproliferative effect (WST-1) (H1299 cells [9]): significant antiproliferative effect; also recorded: Antiproliferative effect has been observed
